Source: US20040005702A1, “Insulin producing cell-line” (priority 2000, published 2004)
“And” between values parts separate entries of the source, which are not always exact repeats. Identical values can stand only once. “Also recorded” adds a separate entry of the source.

How the values were obtained:
[1] = test system: human islet-derived 1.1B4 cells; test: Acute static incubation, insulin secretion by radioimmunoassay, 1.1B4 cells; assay type: cell-based; conditions: for increase of the effect on raising glucose from 5.6 mmol/l to 11.1 mmol/l: 11.1 vs 5.6 mmol/l glucose; for increase of insulin secretion: at 5.6 mmol/l glucose
Protocol: (§1) Acute static incubations at 37° C. were performed using monolayers of insulin-secreting cells. […] Approximately 2.5×10^5 cells were then seeded in each well of 24-well multiplates (Iwaki Glass, Japan). […] The cells were incubated at 37° C. for 40 minutes, after which the buffer was removed and replaced with 0.5 ml KRBB test buffer. […] After 60 min incubation at 37° C., a 450 μl aliquot of KRBB test buffer was removed from each well into 2 ml polypropylene tube (Lip Plastics, England) and centrifuged at 900 rpm for 5 minutes at 4° C. The supernatant was then collected from each tube and 200 μl aliquots were then stored at −20° C. for subsequent insulin determination by radioimmunoassay.
(§2) Human insulin standards were prepared over a range of 2-fold serial dilutions from 5.0 ng/ml to 0.009 ng/ml using Human insulin standard (Sigma Chemical, UK). […] This antiserum was specificaly selected for high affinity with human insulin standard.
(§3) After a further 24 hours incubation at 4° C., 1 ml of a 5% (w/v) charcoal coated with 1:10 dextran T-70 in sodium phosphate buffer (40 mmol/1, pH 7.4) was added to each tube. […] Counts bound to antibody (average total counts minus counts bound to charcoal) are inversely proportional to the concentration of insulin in the standard or unknown sample. The unknown concentration was determined by means of the standard curve, constructed from the known […] insulin standard using a spline curve fitting algorithim.

[2] = test system: human islet-derived 1.1E7 cells; test: Acute static incubation, insulin secretion by radioimmunoassay, 1.1E7 cells; assay type: cell-based; conditions: for threshold glucose concentration for stimulation of insulin release in the presence of the agent: IBMX or 2 mmol/l 5-thioglucose included
Protocol: as §1, §2, §3

[3] = test system: 1.1B4, 1.1E7, 1.4E7 and 1.2B4 cells; test: Acute static incubation, insulin secretion, statements pooled over all four cell lines; assay type: cell-based, human; conditions: for insulin release at 11.1 mmol/l glucose: novel cells; for insulin release from the novel cell lines: each of the novel cell lines, glucose concentration not stated
Protocol: as §1, §2, §3

1.4E7 cells [4] = test: Glucose utilisation from [5-3H]glucose, 1.4E7 cells; assay type: cell-based, human; conditions: 2 mmol/l 5-thioglucose, tested at 1.1 and 16.7 mmol/l glucose
Protocol: (§4) Experiments were performed in specially designed glass cups suspended inside standard counting vials with an airtight stopper. For each sample, 2.0×10^5 cells were incubated in the presence of either 1.1, 5.6, 11.1 or 16.7 mmol/l glucose and D-[5 ^3H] glucose to give a final concentration of 0.25 μCi (40 μl total volume) Effects of 2 mmol/l 5-thioglucose were also tested in 1.1 and 16.7 mmol/l glucose. Blanks were set up where the cells were omitted and replaced with KRBB to give a final concentration of either 1.1 or 16.7 mmol/l glucose. Standards consisted of D-[5^−3H] glucose (0.5 μCi) added to the base of the counting vial. The glass vials were sealed with the rubber caps and placed at 37° C. for one hour. The reaction was stopped by the addition of 0.2M HCl (50 μl) injected through the rubber cap directly into the centre well using a Hamilton syringe. Sterile deionized water was added (500 μl) through the sealed lid into the base of the vial. Vials were then placed at 37° C. for a 15 hour. The rubber caps and centre wells were removed and 5 ml of liquid scintillation fluid (BDH) added to each vial on top of the filter paper. Vials were capped and ^3H-glucose labelled radioactivity determined by scintillation counter.

[5] = test system: human islet-derived 1.4E7 cells; test: Acute static incubation, insulin secretion by radioimmunoassay, 1.4E7 cells; assay type: cell-based
Protocol: as §1, §2, §3

1.1B4 cells [6] = test: Glucose utilisation from [5-3H]glucose, 1.1B4 cells; assay type: cell-based, human; conditions: 2 mmol/l 5-thioglucose
Protocol: as §4

1.1B4 cells [7] = test: Glucose oxidation from D-[U-14C]glucose, 1.1B4 cells; assay type: cell-based, human; conditions: 2 mmol/l 5-thioglucose
Protocol: (§5) A modification of the method developed by Keen et al. (1963) was used to determine oxidative glucose metabolism to CO2. In principle, the method involves incubation of cells in specially designed glass cups suspended inside standard counting vials with an airtight rubber stopper. A disc of filter paper (Whatman No. 1) was placed on the base of the counting vial. For each sample, 2.0×10^5 cells were incubated in the presence of either 1.1, 5.6, 11.1, 16.7 mmol/l glucose and D-[U-^14C] glucose to give a final concentration of […] (40 μl total volume). Effect of 2 mmol/l 5-thioglucose were also tested in 1.1 and 16.7 mmol/l glucose Blanks were set up where the cells were omitted and replaced with KRBB to give a final concentration of either 1.1 or 16.7 mmol/l glucose. Standards consisted of ^14C-labelled glucose (0.5 μCi) added to the filter paper at the base of the counting vial. The glass vials were sealed with the rubber caps and placed at 37° C. for one hour. The reaction was stopped by the addition of 0.2M HCl ([…]) injected through the rubber cap directly into the centre well using a Hamilton syringe. Phenylethylamine (PEA) was added (100 μl) through the sealed lid onto the filter paper at the base of the vial. Care was taken to avoid contamination of the centre well with PEA. […] Vials were capped and ^14C-glucose labelled radioactivity determined by scintillation counter.

[8] = test system: human islet-derived 1.2B4 cells; test: Acute static incubation, insulin secretion by radioimmunoassay, 1.2B4 cells; assay type: cell-based
Protocol: as §1, §2, §3

1.2B4 cells [9] = test: Glucose utilisation from [5-3H]glucose, 1.2B4 cells; assay type: cell-based, human; conditions: 2 mmol/l 5-thioglucose, tested at 1.1 and 16.7 mmol/l glucose
Protocol: as §4

PANC-1 cells [10] = test: Glucose utilisation from [5-3H]glucose, PANC-1 cells; assay type: cell-based, human; conditions: 2 mmol/l 5-thioglucose, this concentration = 16.7 mmol/l glucose
Protocol: as §4

Hup-T3 cells [11] = test: Glucose oxidation from D-[U-14C]glucose, Hup-T3 cells; assay type: cell-based, human; conditions: 2 mmol/l 5-thioglucose, tested at 1.1 and 16.7 mmol/l glucose
Protocol: as §5

1.2B4 cells [12] = test: Glucose oxidation from D-[U-14C]glucose, 1.2B4 cells; assay type: cell-based, human; conditions: 2 mmol/l 5-thioglucose, tested at 1.1 and 16.7 mmol/l glucose
Protocol: as §5

1.1E7 cells [13] = test: Glucose utilisation from [5-3H]glucose, 1.1E7 cells; assay type: cell-based, human; conditions: 2 mmol/l 5-thioglucose, tested at 1.1 and 16.7 mmol/l glucose
Protocol: as §4

PANC-1 cells [14] = test: Glucose oxidation from D-[U-14C]glucose, PANC-1 cells; assay type: cell-based, human; conditions: 2 mmol/l 5-thioglucose, tested at 1.1 and 16.7 mmol/l glucose
Protocol: as §5

1.4E7 cells [15] = test: Glucose oxidation from D-[U-14C]glucose, 1.4E7 cells; assay type: cell-based, human; conditions: 2 mmol/l 5-thioglucose
Protocol: as §5

Hup-T3 cells [16] = test: Glucose utilisation from [5-3H]glucose, Hup-T3 cells; assay type: cell-based, human; conditions: 2 mmol/l 5-thioglucose, tested at 1.1 and 16.7 mmol/l glucose
Protocol: as §4

1.1E7 cells [17] = test: Glucose oxidation from D-[U-14C]glucose, 1.1E7 cells; assay type: cell-based, human; conditions: 2 mmol/l 5-thioglucose
Protocol: as §5

[18] = all four cell lines, 16.7 mmol/l glucose
[19] = 2 mmol/l 5-thioglucose, 0 to 11.1 mmol/l glucose
[20] = tested at 1.1 and 16.7 mmol/l glucose
[21] = 200 μmol/ IBMX, glucose 0 to 16.7 mmol/l

Compound: N=C(N)NCCC[C@H](N)C(=O)O [arginine, L-arginine]
- increase of the effect on raising glucose from 5.6 mmol/l to 11.1 mmol/l [1]: 17%
- insulin secretory response at 11.1 mmol/l glucose compared with 5.6 mmol/l [2]: significantly greater
- insulin secretion at non-stimulatory glucose ([3]; each cell line, 5.6 mmol/l glucose): significantly stimulated
- insulin release at 11.1 mmol/l glucose [3]: significant increases in insulin release

Compound: O=C(O)CN(CCOCCOCCN(CC(=O)O)CC(=O)O)CC(=O)O [EGTA]
- insulin output at 16.7 mmol/l glucose [3, 18]: significantly inhibited

Compound: O=C[C@H](O)[C@@H](O)[C@H](O)[C@H](S)CO [5-thioglucose]
- effect of 5-thioglucose on glucose utilisation (1.4E7 cells [4]): unaffected
- effect of 5-thioglucose on insulin output and glucose responsiveness ([5]; 2 mmol/l 5-thioglucose): least affected; also recorded: not affected
- effect of 5-thioglucose on glucose utilisation (1.1B4 cells [6]; 1.1 mmol/l glucose): did not affect
- effect of 5-thioglucose on glucose utilisation (1.1B4 cells [6]; 16.7 mmol/l glucose): reduce utilisation
- lowering of insulin output by 5-thioglucose [1, 19]: 20-50% and 20 to 50%
- ratio of glucose oxidation:glucose utilisation on addition of 5-thioglucose (1.1B4 cells [7]): significant increase in ratio
- effect of 5-thioglucose on glucose oxidation (1.1B4 cells [7]; [20]): inhibit the oxidation of glucose at both 1.1 mmol/l and 16.7 mmol/l glucose; also recorded: only marginally inhibited
- glucose-stimulated insulin release in the presence of 5-thioglucose ([8]; 2 mmol/l 5-thioglucose): became apparent
- lowering of insulin output by 5-thioglucose [8, 19]: 20-50% and 20 to 50%
- effect of 5-thioglucose on glucose utilisation (1.2B4 cells [9]): had no affect
- effect of 5-thioglucose on glucose utilisation (PANC-1 cells [10]): inhibit utilisation only at this concentration
- effect of 5-thioglucose on glucose oxidation (Hup-T3 cells [11]): able to inhibit oxidation at both 1.1 and 16.7 mmol/l glucose
- effect of 5-thioglucose on glucose oxidation (1.2B4 cells [12]): inhibited oxidation at 16.7 mmol/l
- effect of 5-thioglucose on glucose utilisation (1.1E7 cells [13]): only affected utilisation at 16.7 mmol/l
- effect of 5-thioglucose on glucose oxidation (PANC-1 cells [14]): significant inhibition of oxidation at both 1.1 and 16.7 mmol/l
- ratio of glucose oxidation:glucose utilisation on addition of 5-thioglucose (1.4E7 cells [15]): significant increase in ratio
- effect of 5-thioglucose on glucose oxidation (1.4E7 cells [15]; [20]): clearly inhibiting oxidation at both 1.1 and 16.7
- lowering of insulin output by 5-thioglucose [2, 19]: 20-50% and 20 to 50%
- threshold glucose concentration for stimulation of insulin release in the presence of the agent [2]: 5.6 mmol/L
- effect of 5-thioglucose on glucose utilisation (Hup-T3 cells [16]): did not inhibit
- ratio of glucose oxidation:glucose utilisation on addition of 5-thioglucose (1.1E7 cells [17]): significant increase in ratio
- effect of 5-thioglucose on responsiveness to increasing glucose concentrations ([3]; all four cell lines, 2 mmol/l 5-thioglucose): improved; also recorded: caused a shift

Compound: [Cl-].[K+] [KCl]
- secretory responsiveness at passage 40 ([3]; all four cell lines, passage 40 vs 17): maintain responsiveness
- insulin release from the novel cell lines [3]: provoked insulin release

Compound: O=CC(O)CO (stereo not shown) [glyceraldehyde]
- insulin release from the novel cell lines [3]: significantly stimulate

Compound: COc1ccc(Cl)cc1C(=O)NCCc1ccc(S(=O)(=O)NC(=O)NC2CCCCC2)cc1 [glibenclamide]
- insulin release from the novel cell lines [3]: provoked insulin release

Compound: CC(C)C[C@H](N)C(=O)O [leucine, L-leucine]
- insulin secretion at 11.1 mmol/l glucose [5]: induced insulin secretion
- increase of the effect on raising glucose from 5.6 mmol/l to 11.1 mmol/l [1]: 30%
- increase of insulin secretion [1]: Significant effects
- insulin secretion at 11.1 mmol/l glucose [8]: induced insulin secretion
- insulin secretory response at 11.1 mmol/l glucose compared with 5.6 mmol/l [2]: significantly greater
- insulin release at 11.1 mmol/l glucose [3]: significant increases in insulin release

Compound: C[C@H](N)C(=O)O [alanine, L-alanine]
- insulin secretion at 11.1 mmol/l glucose [5]: induced insulin secretion
- increase of insulin secretion [1]: Significant effects
- insulin secretion at 11.1 mmol/l glucose [8]: induced insulin secretion
- insulin secretory response at 11.1 mmol/l glucose compared with 5.6 mmol/l [2]: significantly greater
- insulin release at 11.1 mmol/l glucose [3]: significant increases in insulin release

Compound: CC(C)CC(=O)C(=O)O [KIC]
- insulin secretion at 11.1 mmol/l glucose [5]: induced insulin secretion
- insulin secretion at 11.1 mmol/l glucose [8]: induced insulin secretion
- insulin secretory response at 11.1 mmol/l glucose compared with 5.6 mmol/l [2]: significantly greater
- insulin release at 11.1 mmol/l glucose [3]: significant increases in insulin release

Compound: isobutylmethylxanthine [IBMX]
- increase of secretory response to glucose by IBMX [5, 21]: 20 to 100% and 20 to 60%
- stimulation of secretory response with IBMX [5, 21]: 1.3-2 fold
- insulin secretion with IBMX in the absence of glucose ([5]; absence of glucose): modestly enhanced
- increase of secretory response to glucose by IBMX [1, 21]: 20 to 100% and 20 to 60%
- stimulation of secretory response with IBMX [1, 21]: 1.3-2 fold
- insulin secretion with IBMX in the absence of glucose ([1]; absence of glucose): modestly enhanced
- effect of IBMX on insulin released ([8]; 200 μmol/ IBMX): did not significantly affect; also recorded: insensitive
- increase of secretory response to glucose by IBMX [2, 21]: 20 to 100% and 20 to 60%
- stimulation of secretory response with IBMX [2, 21]: 1.3-2 fold
- threshold glucose concentration for stimulation of insulin release in the presence of the agent [2]: 5.6 mmol/L

Compound: COc1ccc(CCN(C)CCCC(C#N)(c2ccc(OC)c(OC)c2)C(C)C)cc1OC (stereo not shown) [verapamil]
- insulin output at 16.7 mmol/l glucose [3, 18]: similarly reduced

Compound: CC1=NS(=O)(=O)c2cc(Cl)ccc2N1 [Diazoxide, diazoxide]
- inhibition at 400 µM ([3]; Homo sapiens, all four cell lines, 16.7 mmol/l glucose, diazoxide 400 μmol/l, EGTA in Ca2+-free buffer, read-out: inhibition of insulin release): 20 to 50%
- insulin output at 16.7 mmol/l glucose [3, 18]: significantly reduced

Compound: CCCCNC(=O)NS(=O)(=O)c1ccc(C)cc1 [tolbutamide]
- increase of the effect on raising glucose from 5.6 mmol/l to 11.1 mmol/l [1]: 20%
- insulin release from the novel cell lines [3]: provoked insulin release
